One assay concerns the target T1, CCK2 receptor (Homo sapiens, UniProt P32239).
T1 construct: analyzed for ZFP expression as well as CCK2R induction upon addition of doxycycline to the culture medium; endogenous in cells
T1 sequence (P32239 1-447): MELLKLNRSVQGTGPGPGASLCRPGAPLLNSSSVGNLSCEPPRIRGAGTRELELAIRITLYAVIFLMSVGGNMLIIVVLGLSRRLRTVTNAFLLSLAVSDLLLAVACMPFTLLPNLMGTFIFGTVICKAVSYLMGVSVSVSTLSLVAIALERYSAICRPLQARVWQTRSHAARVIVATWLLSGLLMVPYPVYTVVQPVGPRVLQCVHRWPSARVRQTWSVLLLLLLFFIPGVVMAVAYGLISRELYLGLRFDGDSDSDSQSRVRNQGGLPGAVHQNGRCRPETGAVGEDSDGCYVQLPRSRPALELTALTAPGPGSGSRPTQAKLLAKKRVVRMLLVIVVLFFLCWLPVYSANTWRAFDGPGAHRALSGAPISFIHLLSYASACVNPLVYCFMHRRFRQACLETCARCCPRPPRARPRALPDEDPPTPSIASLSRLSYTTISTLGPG
Description: CCK2 binding assay ([125I]-BH-CCK-8S displacement, HEKZFP membranes). The note with it: membranes of doxycycline-induced HEKZFP cells; 20 pM [125I]-BH-CCK-8S; 60 min at 21±3° C.; read-out: CCK2 pKi (converted). As for the experimental part: 2. CCK2 Assay Development and Data Generation
Zinc Finger Proteins (ZFP) specific for the CCK2R gene were identified by Sangamo Biosciences. The ZFP domain was fused with the herpes simplex virus VP16 activation domain, and the fusion protein was subsequently cloned into the pcDNA3 mammalian expression vector (Invitrogen, San Diego, Calif.). […] After 2 weeks of selection in culture medium containing […] Zeocin (Invitrogen), sixty drug-resistant stable clones were isolated and analyzed for ZFP expression as well as CCK2R induction upon addition of doxycycline to the culture medium.
HEKZFP cells were grown in DMEM supplemented with L-glutamine (2 mM), penicillin (50 units/mL) and streptomycin (50 μg/mL) and 10% FBS (v/v).
Membranes were prepared from the HEKZFP cells after induction. […] The thawed pellets were homogenized using a Polytron PT-10 (7×1 s). The homogenates were centrifuged for 5 min at 1500 rpm (600×g), and the resulting pellets were discarded. The supernatants were re-centrifuged in order to collect the receptor-membrane pellets (25 min 15,000 rpm; 39,800×g), which were re-suspended in buffer A.
The assay preparation was incubated for 1 h at 21±3° C., and then the assay was terminated by rapid filtration of the preparation under reduced pressure. The loaded filters were washed three times using undiluted PBS (100 μL), and then 100 μL of scintillation fluid was added to the filter plate. Bound radioactivity was determined using a Topcount (Packard BioScience, Meriden, Conn.) with a count time of 1 min. […] To validate the radioligand concentration and incubation time for the assay, saturation and kinetic binding studies were also conducted (see M. F. Morton, The Pharmacological Characterization of Cholecystokinin Receptors in the Human Gastrointestinal Tract. PhD Thesis, University of London, 2000). […] The assay was then terminated according to the procedure outlined above.
(§1) 3. Data Analysis for CCK1 and CCK2 Binding Assays
The pKi values were determined using the equation of Y.-C.
(§2) [formula] To circumvent problems associated with computer-assisted data analysis of compounds with low affinity, the data obtained in the current study were weighted according to a method described by Morton. In brief, 100% and 0% specific binding were defined independently using total binding and binding obtained in the presence of a high concentration of the reference antagonist, 2-NAP.

Another assay concerns the target T2, CCK-1 receptor (Homo sapiens, UniProt P32238).
T2 construct: expressed in transfected cells; host or cells: CHO-K1
T2 sequence (P32238 1-428): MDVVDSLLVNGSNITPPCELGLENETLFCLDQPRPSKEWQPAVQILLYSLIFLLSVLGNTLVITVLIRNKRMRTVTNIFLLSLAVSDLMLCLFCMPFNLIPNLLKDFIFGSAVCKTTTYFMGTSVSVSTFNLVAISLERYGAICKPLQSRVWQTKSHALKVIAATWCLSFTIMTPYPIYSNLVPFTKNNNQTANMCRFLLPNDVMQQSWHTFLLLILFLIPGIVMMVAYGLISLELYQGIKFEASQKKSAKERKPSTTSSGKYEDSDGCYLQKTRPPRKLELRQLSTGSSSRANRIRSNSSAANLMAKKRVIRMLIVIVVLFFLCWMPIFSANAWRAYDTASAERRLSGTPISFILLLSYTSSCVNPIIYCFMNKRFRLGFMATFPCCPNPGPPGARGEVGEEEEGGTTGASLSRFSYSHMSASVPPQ
Description: CCK1 binding assay ([125I]-BH-CCK-8S displacement, CHO-K1 membranes). As to conditions: membranes of CHO-K1 cells stably transfected with the CCK-1 receptor, 20 pM [125I]-BH-CCK-8S, 0.3 μM PD-134,308 present, 60 min at 21±3° C.; for Ki: read-out: CCK1 pKi (converted). On the procedure: 1. CCK1 Assay Development and Data Generation
CHO-K1 cells that had undergone stable transfection with the CCK-1 receptor were grown in DMEM supplemented with L-glutamine (2 mM), penicillin (50 units/mL) and streptomycin (50 μg/mL). Cells were cultured under continuous G418 selection (2 mM) and were harvested using a rubber cell scraper. CHO-K1 cells were sub-cultured a maximum of ten times before being reseeded from the original stocks.
Membranes were prepared from the stably transfected CHO-K1 cells. Frozen cell pellets (−40° C.) were thawed in 14 mL of buffer A (10 mM HEPES, 130 mM NaCl, 4.7 mM KCl, 5 mM MgCl, 1 mM EGTA and 15.4 mg/100 mL bacitracin at pH 7.2), adapted from Harper et al. (Br. J. Pharmacol. 1996, 118:1717-1726). The thawed pellets were homogenized using a Polytron PT-10 (7×1 s). The homogenates were centrifuged for 5 min at 1500 rpm (600×g), and the resulting pellets were discarded. The supernatants were re-centrifuged in order to collect the receptor-membrane pellets (25 min 15,000 rpm; 39,800×g), which were re-suspended in buffer A.
All assays were conducted in 96-well plates (GF/B millipore filter plates) using buffer A, with 0.3 μM PD-134,308, for the dilutions. The CCK-2 receptor ligand was included to eliminate the contribution of this receptor subtype to the binding. For the optimal cell number determination experiments 20 pM [^125I]-BH-CCK-8S (50 μL […] solution) was incubated with a range of cell concentrations ([…] to 12.5×10^5 cells/well) in a total volume of 150 μL. Total binding of [^125I]-BH-CCK-8S was determined in the presence of 15 μL of buffer A. Non-specific binding of [^125I]-BH-CCK-8S was determined in the presence of 15 μL of 100 μM 2-naphthalenesulphonyl L-aspartyl-(2-phenethyl)amide (2-NAP: see R. A. Hull et al. Br. J. Pharmacol. 1993, 108:734-740), a CCK-1 receptor selective antagonist that is structurally unrelated to the radioligand [^125I]-BH-CCK-8S. The assay preparation was incubated for 1 h at 21±3° C., and then the assay was terminated upon rapid filtration of the preparation under reduced pressure. The loaded filters were washed three times using undiluted PBS ([…]), and then the residues were transferred to 5 mL scintillation tubes. Bound radioactivity was determined using a gamma counter (count time=1 min). […] To validate the radioligand concentration and incubation time for the assay, saturation and kinetic binding studies were also conducted (see M. F. Morton, The Pharmacological Characterization of Cholecystokinin Receptors in the Human Gastrointestinal Tract. PhD Thesis, University of London, 2000). […] The assay was then terminated according to the procedure outlined above.
as §1
The pKi values were determined using the equation of Y.-C. Cheng and W. H. Prusoff (Biochem. Pharmacol., 1973, 22(23):3099-3108):
as §2

Structures are written as SMILES.

For the compound `COC(=O)[C@H](Cc1ccc(F)c(Br)c1)NC(=O)c1ccc(I)cc1NS(=O)(=O)c1cccc2nsnc12` [Example 123, (S)-2-[2-(Benzo[1,2,5]thiadiazole-4-sulfonylamino)-4-iodo-benzoylamino]-3-(3-bromo-4-fluoro-phenyl)-propionic acid methyl ester], the Ki on CCK2 receptor is 158 nM; on CCK-1 receptor, 100 nM.
The like results for `O=C(O)C[C@H](Cc1ccc(Cl)cc1)NC(=O)c1ccc(Cl)cc1NS(=O)(=O)c1cccc2nccnc12` [Example 89, (S)-4-(4-Chloro-phenyl)-3-[4-chloro-2-(quinoxaline-5-sulfonylamino)-benzoylamino]-butyric acid] were, in that order, 63.1 nM and 7940 nM.
Consider `CC(CNC(=O)c1ccc(I)cc1NS(=O)(=O)c1cccc2nsnc12)c1ccc(Cl)c(Cl)c1` (stereo not shown) [Example 39, 2-(Benzo[1,2,5]thiadiazole-4-sulfonylamino)-N-[2-(3,4-dichloro-phenyl)-propyl]-4-iodo-benzamide], for which the Ki at CCK2 receptor was 251 nM; at CCK-1 receptor, 25.1 nM.
Turning to `O=C(N[C@@H](Cc1ccc(Cl)cc1)C(=O)O)c1ccc(I)cc1NS(=O)(=O)c1c(F)cccc1F` [Example 34, 3-(4-Chloro-phenyl)-2-[2-(2,6-difluoro-benzenesulfonylamino)-4-iodo-benzoylamino]-propionic acid], the Ki at CCK2 receptor is 100 nM; on CCK-1 receptor it was 398 nM.
Regarding `CC(CNC(=O)c1ccc(Cl)cc1NS(=O)(=O)c1c(F)cccc1F)c1ccc([N+](=O)[O-])cc1` (stereo not shown) [Example 44, 4-Chloro-2-(2,6-difluoro-benzenesulfonylamino)-N-[2-(4-nitro-phenyl)-propyl]-benzamide], the Ki at CCK2 receptor is 3980 nM; at CCK-1 receptor, 100 nM.
The like results for `CC(CNC(=O)c1ccc(I)cc1NS(=O)(=O)c1cccc2nccnc12)c1ccc(Cl)c(Cl)c1` (racemic) [Example 61, (±)-N-[2-(3,4-Dichloro-phenyl)-propyl]-4-iodo-2-(quinoxaline-5-sulfonylamino)-benzamide] were, in that order, 398 nM and 126 nM.
With `NC(=O)[C@H](Cc1ccc(Cl)cc1)NC(=O)c1cc(Cl)c(Cl)cc1NS(=O)(=O)c1cccc2nsnc12` [Example 11, (S)-2-(Benzo[1,2,5]thiadiazole-4-sulfonylamino)-N-[1-carbamoyl-2-(4-chloro-phenyl)-ethyl]-4,5-dichloro-benzamide], the results for the Ki on CCK2 receptor and at CCK-1 receptor were 316 nM and 398 nM, respectively.
Regarding `COC(=O)[C@@H](NC(=O)c1ccc(I)cc1NS(=O)(=O)c1c(F)cccc1F)[C@H](C)c1ccc(Cl)c(Cl)c1` [Example 116, (2S,3R)-3-(3,4-Dichloro-phenyl)-2-[2-(2,6-difluoro-benzenesulfonylamino)-4-iodo-benzoylamino]-butyric acid methyl ester], the Ki at CCK2 receptor is 2000 nM; at CCK-1 receptor it was 126 nM.
The like results for `COC(=O)[C@H](Cc1ccc(F)c(Br)c1)NC(=O)c1ccc(Cl)cc1NS(=O)(=O)c1cccc2nsnc12` [Example 149, (S)-2-[2-(Benzo[1,2,5]thiadiazole-4-sulfonylamino)-4-chloro-benzoylamino]-3-(3-bromo-4-fluoro-phenyl)-propionic acid methyl ester] were, in that order, 200 nM and 200 nM.
The matching figures for `COC(=O)[C@@H](Cc1ccc(Cl)cc1)NC(=O)c1ccc(Cl)cc1NS(=O)(=O)c1ccc(F)cc1F` [Example 69, (R)-2-[4-Chloro-2-(2,4-difluoro-benzenesulfonylamino)-benzoylamino]-3-(4-chloro-phenyl)-propionic acid methyl ester]: 7940 nM and 63.1 nM.
The matching figures for `CC(CNC(=O)c1ccc(Cl)cc1NS(=O)(=O)c1cccc2nsnc12)c1ccc(Cl)cc1` (racemic) [Example 1, (±)-2-(Benzo[1,2,5]thiadiazole-4-sulfonylamino)-4-chloro-N-[2-(4-chloro-phenyl)-propyl]-benzamide]: 398 nM and 126 nM.
For the compound `CC(CNC(=O)c1ccc(I)cc1NS(=O)(=O)c1cccc2nsnc12)c1ccc(Cl)cc1` (stereo not shown) [Example 72, 2-(Benzo[1,2,5]thiadiazole-4-sulfonylamino)-N-[2-(4-chloro-phenyl)-propyl]-4-iodo-benzamide], the Ki at CCK2 receptor is 501 nM; on CCK-1 receptor, 79.4 nM.
With `O=C(NCC(c1ccc(Cl)cc1)c1ccc(Cl)cc1)c1ccc(Cl)cc1NS(=O)(=O)c1cccc2nsnc12` [Example 6, 2-(Benzo[1,2,5]thiadiazole-4-sulfonylamino)-N-[2,2-bis-(4-chloro-phenyl)-ethyl]-4-chloro-benzamide], the “CCK1 pKi” value on CCK-1 receptor worked out at 7.5.

Values taken from patent US7855292B2, “Sulfonamide compounds” (Janssen Pharmaceutica NV, priority 2004, dated 2010).
